Test results as given in ChEMBL document CHEMBL1201861, “Genomics of Drug Sensitity in Cancer screening data, Wellcome Trust Sanger Institute”.

Key:
[1] = tested on: CPC-N; test: cells; type: functional, cell-based, Homo sapiens; conditions: Homo sapiens, CPC-N;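 further: growth inhibition of CPC-N cells, with a cell viability assay as the readout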
Description: SANGER: Inhibition of human CPC-N cell growth in a cell viability assay.

[2] = tested on: EW-24; test: cells; type: functional, cell-based, Homo sapiens; conditions: Homo sapiens, EW-24;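 further: human EW-24 cancer cell line, growth inhibition read out via a cell viability assay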
Description: SANGER: Inhibition of human EW-24 cell growth in a cell viability assay.

[3] = tested on: HuTu80; test: cells; type: functional, cell-based, Homo sapiens, HUTU-80; conditions: Homo sapiens, HuTu80;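 further: growth inhibition of HuTu80 human cells, determined with a cell viability readout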
Description: SANGER: Inhibition of human HUTU-80 cell growth in a cell viability assay.

[4] = tested on: IM-9; test: SANGER: Inhibition of human IM-9 cell growth in a cell viability assay.; type: functional, cell-based; conditions: Homo sapiens, IM-9
[5] = tested on: JIYOYE; test: cells; type: functional, cell-based, Homo sapiens; conditions: Homo sapiens, JIYOYE
Description: SANGER: Inhibition of human JiyoyeP-2003 cell growth in a cell viability assay.

[6] = tested on: MC-CAR; test: cells; type: functional, cell-based, Homo sapiens; conditions: Homo sapiens, MC-CAR;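 further: growth inhibition of the human MC-CAR cell line, read out by a cell viability assay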
Description: SANGER: Inhibition of human MC-CAR cell growth in a cell viability assay.

[7] = tested on: NALM-6; test: cells; type: functional, cell-based, Homo sapiens; conditions: Homo sapiens, NALM-6;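 further: growth inhibition of NALM-6 cells, read out with a cell viability assay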
Description: SANGER: Inhibition of human NALM-6 cell growth in a cell viability assay.

[8] = tested on: NCCIT; test: SANGER: Inhibition of human NCCIT cell growth in a cell viability assay.; type: functional, cell-based; conditions: Homo sapiens, NCCIT
[9] = tested on: NCI-H2081; test: cells; type: functional, cell-based, Homo sapiens; conditions: Homo sapiens, NCI-H2081;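 further: growth inhibition of human NCI-H2081 cells, read out with a cell viability assay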
Description: SANGER: Inhibition of human NCI-H2081 cell growth in a cell viability assay.

[10] = tested on: NCI-H2196; test: cells; type: functional, cell-based, Homo sapiens; conditions: Homo sapiens, NCI-H2196; read-out: IC50;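 further: cell viability assay used as the readout of growth inhibition in NCI-H2196 cells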
Description: SANGER: Inhibition of human NCI-H2196 cell growth in a cell viability assay.

[11] = tested on: NCI-H748; test: cells; type: functional, cell-based, Homo sapiens; conditions: Homo sapiens, NCI-H748;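 further: growth inhibition of NCI-H748 cells, measured by a cell viability assay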
Description: SANGER: Inhibition of human NCI-H748 cell growth in a cell viability assay.

[12] = tested on: P31-FUJ; test: cells; type: functional, cell-based, Homo sapiens; conditions: Homo sapiens, P31-FUJ;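 further: growth inhibition of P31-FUJ cells, read out with a viability assay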
Description: SANGER: Inhibition of human P31-FUJ cell growth in a cell viability assay.

[13] = tested on: RPMI-6666; test: cells; type: functional, cell-based, Homo sapiens; conditions: Homo sapiens, RPMI-6666
Description: SANGER: Inhibition of human RPMI-6666 cell growth in a cell viability assay.

[14] = tested on: SUP-T1; test: cells; type: functional, cell-based, Homo sapiens; conditions: Homo sapiens, SUP-T1;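 further: growth inhibition of human SUP-T1 cells, read out as cell viability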
Description: SANGER: Inhibition of human SUP-T1 cell growth in a cell viability assay.

[15] = tested on: TALL-1; test: cells; type: functional, cell-based, Homo sapiens; conditions: Homo sapiens, TALL-1;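 further: growth inhibition of cultured human TALL-1 cells, read out by a cell viability assay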
Description: SANGER: Inhibition of human TALL-1 cell growth in a cell viability assay.

[16] = tested on: TUR; test: cells; type: functional, cell-based, Homo sapiens; conditions: Homo sapiens, TUR;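 further: growth inhibition of human TUR cells, read out with a cell viability assay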
Description: SANGER: Inhibition of human TUR cell growth in a cell viability assay.

[17] = tested on: D-392MG; test: cells; type: functional, cell-based; conditions: Homo sapiens

Row | Structure (SMILES) | IC50 [1] | IC50 [2] | IC50 [3] | IC50 [4] | IC50 [5] | IC50 [6] | IC50 [7] | IC50 [8] | IC50 [9] | IC50 [10] | IC50 [11] | IC50 [12] | IC50 [13] | IC50 [14] | IC50 [15] | IC50 [16] | IC50 [17]
1 | COc1cc(N2CCC(N3CCN(C)CC3)CC2)ccc1Nc1ncc(Cl)c(Nc2ccccc2S(=O)(=O)C(C)C)n1 [TAE-684] | 1850 nM | > 2000 nM | 474 nM | > 2000 nM | > 2000 nM | > 2000 nM | 907 nM | > 2000 nM | > 2000 nM | > 2000 nM | > 2000 nM | > 2000 nM | > 2000 nM | > 2000 nM | > 2000 nM | > 2000 nM | 
2 | NC(=O)c1cccc(-c2cc(Nc3ccc(OC(F)(F)F)cc3)ncn2)c1 | > 1280 nM | > 1280 nM | > 1280 nM | > 1280 nM | > 1280 nM | > 1280 nM | > 1280 nM | > 1280 nM | > 1280 nM | > 1280 nM | > 1280 nM | > 1280 nM | > 1280 nM | > 1280 nM | > 1280 nM | > 1280 nM | 
3 | Cc1cc(N2CCOCC2)cc2[nH]c(-c3c(NC[C@@H](O)c4cccc(Cl)c4)cc[nH]c3=O)nc12 | 3590 nM | > 5120 nM | 466 nM | > 5120 nM | 5000 nM | > 5120 nM | 2970 nM | 3830 nM | > 5120 nM | > 5120 nM | > 5120 nM | > 5120 nM | 3450 nM | > 5120 nM | > 5120 nM | > 5120 nM | 
4 | Nc1ccccc1NC(=O)c1ccc(CNC(=O)OCc2cccnc2)cc1 [ENTINOSTAT] | 805 nM | > 5000 nM | 1800 nM | > 5000 nM | 1350 nM | > 5000 nM | 649 nM | 386 nM | > 5000 nM | 4060 nM | 103 nM | > 5000 nM | 411 nM | > 5000 nM | > 5000 nM | > 5000 nM | > 5000 nM
5 | CC(C)C[C@H](NC(=O)[C@H](Cc1ccccc1)NC(=O)c1cnccn1)B(O)O [BORTEZOMIB] | > 20 nM | 2.08 nM | 0.533 nM | > 20 nM | 5 nM | > 20 nM | 4.49 nM | 18.4 nM | 10.1 nM | 6.8 nM | 2.39 nM | > 20 nM | > 20 nM | > 20 nM | > 20 nM | > 20 nM | 1.1 nM
